# Measured values as given in publication PMC3859608, “C-Terminus of the B-Chain of Relaxin-3 Is Important for Receptor Activity” (PLoS ONE, 2013).
# No end group written: not given here.
# T1: RXFP3 (Homo sapiens, UniProt Q9NSD7)
# T1 construct: expressed in transfected cells
# T1 sequence (Q9NSD7 1-469): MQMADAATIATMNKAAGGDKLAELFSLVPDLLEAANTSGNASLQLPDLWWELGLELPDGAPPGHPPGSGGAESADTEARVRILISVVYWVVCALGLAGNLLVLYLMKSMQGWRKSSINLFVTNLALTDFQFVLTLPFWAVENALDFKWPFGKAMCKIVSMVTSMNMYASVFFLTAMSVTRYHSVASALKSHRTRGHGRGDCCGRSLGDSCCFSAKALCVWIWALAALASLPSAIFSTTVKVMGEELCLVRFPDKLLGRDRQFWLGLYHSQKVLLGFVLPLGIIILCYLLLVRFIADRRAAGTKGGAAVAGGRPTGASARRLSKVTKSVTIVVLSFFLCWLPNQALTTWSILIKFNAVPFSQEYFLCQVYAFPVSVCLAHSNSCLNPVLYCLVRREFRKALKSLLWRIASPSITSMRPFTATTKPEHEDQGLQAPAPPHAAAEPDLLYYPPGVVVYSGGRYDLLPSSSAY
# Legend:
# [1] = biological target: T1, RXFP3; experiment: Competition binding, Eu-labelled I5/R3, CHO-K1 cells expressing RXFP3; settings: CHO-K1 cells stably expressing RXFP3; Eu-I5/R3 0.5 nM; one site competition fit; mean ± SEM, n in parentheses in cell (3; H3 amide 4), triplicate determinations; ** p<0.01 vs H3 acid (H3 amide, H3 A-acid); read-out: RXFP3 Eu-H3/I5 pKi (converted)
# Experimental: (§1) The receptor binding affinity of the peptides was measured using CHO-K1 cells stably expressing RXFP3 and RXFP4. The competition binding assays were carried out as previously described, [27]. Briefly, a single concentration of Eu-labelled I5/R3 (0.5 nM) or Eu-labelled mouse INSL5 (2.5 nM) were used in presence of increasing concentration of peptides. The data were analyzed using GraphPad PRISM 5 (GraphPad Inc., San Diego, USA). The europium binding curves were fitted to a one site competition curve and the pKi values were expressed as the mean ± SEM of at least three independent experiments with triplicate determinations within each assay.
# (§2) Figure 2 Receptor binding affinity (pKi) and cAMP activity (pEC-50) curves of H3 relaxin and its variants at RXFP3. A) Competition binding curves of H3 relaxin variants using a single concentration of Eu-I5/R3 (0.5 nM) in the presence of increasing concentrations of the H3 relaxin peptides. B) RXFP3 activation curves of H3 relaxin variants measured in a cAMP activity assay in the presence of 5 µM forskolin. The data were expressed as mean ± SEM. from at least three independent experiments.
# [2] = biological target: T1, RXFP3; experiment: cAMP activity (inhibition of forskolin-induced cAMP), CHO-K1 cells expressing RXFP3; assay type: cell-based; settings: CHO-K1 RXFP3, pCRE-β-galactosidase reporter; forskolin 1 µM (method) / 5 µM (Fig. 2 legend); peptide 0.01 nM – 1 µM; mean ± SEM, n = 3, triplicate determinations; ** p<0.01 vs H3 acid (H3 amide, H3 A-acid); read-out: RXFP3 cAMP pEC50 (converted)
# Experimental: (§3) The ability of the peptides to activate the receptors RXFP3/RXFP4 was assessed by measuring their influence on cAMP signalling in CHO-K1 cells stably expressing RXFP3 or RXFP4 transfected with a pCRE-β-galactosidase reporter gene construct as previously described. A single concentration of forskolin was used to stimulate cAMP signalling in cells expressing RXFP3 (1 µM) and RXFP4 (5 µM) and peptide induced inhibition of cAMP signalling was measured by adding increasing concentrations of the peptides (0.01 nM – 1 µM). The ability of the peptides to inhibit forskolin-induced cAMP response (pEC50) was measured and expressed as mean ± SEM from three independent experiments with triplicate determinations within each assay. The inhibition curves were fitted to a single-site sigmoidal dose-response curve with variable slope using Graphpad PRISM 5.
# as §2
# [3] = biological target: T2, RXFP4 (Homo sapiens, UniProt Q8TDU9); experiment: Competition binding, Eu-labelled mouse INSL5, CHO-K1 cells expressing RXFP4; settings: CHO-K1 cells stably expressing RXFP4; Eu-labelled mouse INSL5 2.5 nM; one site competition fit; mean ± SEM, n = 3, triplicate determinations; vs H3 acid: * H3 amide, ** p<0.01 H3 A-acid; read-out: RXFP4 Eu-INSL5 pKi (converted)
# T2 construct: expressed in transfected cells
# Experimental: as §1
# (§4) Figure 3 Receptor binding affinity (pKi) and cAMP activity (pEC-50) curves of H3 relaxin and its variants at RXFP4. A) Competition binding curves of H3 relaxin variants at RXFP4 using a single concentration of Eu-INSL5 (2.5 nM) in the presence of increasing concentrations of the H3 relaxin peptides. B) RXFP4 activation curves of H3 relaxin variants measured in a cAMP activity assays in the presence of 1 µM forskolin. The data were expressed as mean ± SEM from at least three independent experiments.
# [4] = biological target: T2, RXFP4; experiment: cAMP activity (inhibition of forskolin-induced cAMP), CHO-K1 cells expressing RXFP4; assay type: cell-based; settings: CHO-K1 RXFP4, pCRE-β-galactosidase reporter; forskolin 5 µM (method) / 1 µM (Fig. 3 legend); peptide 0.01 nM – 1 µM; mean ± SEM, n = 3, triplicate determinations; vs H3 acid: * H3 amide, ** p<0.01 H3 A-acid; read-out: RXFP4 cAMP pEC50 (converted)
# Experimental: as §3, §4
# [5] = cited from earlier work; for activity by C-terminal form: C-terminal amide vs acid
# From the text: The bioactivity of many polypeptide hormones often requires a form of post-translational modification of their precursors. An example of a widespread modification is C-terminal amidation which often leads to an increase in bioactivity of peptides [32]–[35]. In some cases, amidation of the C-terminus has been reported to have detrimental effect on the activity of peptides, [36]. […] In the case of relaxin family peptides, H2 relaxin and INSL3, both p ...
# T2 sequence (Q8TDU9 whole entry, species assumed): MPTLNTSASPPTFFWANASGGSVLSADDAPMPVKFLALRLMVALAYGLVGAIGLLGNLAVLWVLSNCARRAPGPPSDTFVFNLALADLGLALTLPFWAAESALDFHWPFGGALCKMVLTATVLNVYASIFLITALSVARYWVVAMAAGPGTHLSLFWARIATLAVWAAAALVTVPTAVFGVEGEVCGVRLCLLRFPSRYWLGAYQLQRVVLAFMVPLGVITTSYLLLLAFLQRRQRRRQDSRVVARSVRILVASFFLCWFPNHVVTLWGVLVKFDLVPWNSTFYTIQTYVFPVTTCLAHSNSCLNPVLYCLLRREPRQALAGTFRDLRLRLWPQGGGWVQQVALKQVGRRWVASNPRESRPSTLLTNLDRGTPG
Molecule,Ki [1] [nM],EC50 [2] [nM],Ki [3] [nM],EC50 [4] [nM],activity by C-terminal form [5],activity of acid vs amide form [5]
CC[C@H](C)[C@@H]1NC(=O)[C@H](Cc2ccccc2)NC(=O)[C@H](CCC(=O)O)NC(=O)[C@H](CCCNC(=N)N)NC(=O)CNC(=O)[C@@H](NC(=O)[C@H](CC(C)C)NC(=O)[C@H](CCCNC(=N)N)NC(=O)[C@@H](NC(=O)CNC(=O)[C@H](Cc2ccc(O)cc2)NC(=O)[C@@H]2CCCN2C(=O)[C@H](C)NC(=O)[C@H](C)NC(=O)[C@@H](N)CCCNC(=N)N)C(C)C)CSSC[C@@H]2NC(=O)[C@@H](NC(=O)[C@H](CO)NC(=O)[C@H](CO)NC(=O)[C@H](CO)NC(=O)[C@H](CC(C)C)NC(=O)CNC(=O)[C@H](C)NC(=O)[C@H](CC(C)C)NC(=O)[C@@H](NC(=O)[C@@H](N)CC(=O)O)C(C)C)CSSC[C@H](NC(=O)CNC(=O)[C@H](Cc3c[nH]c4ccccc34)NC(=O)[C@H](CCCCN)NC2=O)C(=O)N[C@@H](CO)C(=O)N[C@@H](CCCCN)C(=O)N[C@@H](CO)C(=O)N[C@@H](CCC(=O)O)C(=O)N[C@@H]([C@@H](C)CC)C(=O)N[C@@H](CO)C(=O)N[C@@H](CO)C(=O)N[C@@H](CC(C)C)C(=O)N[C@H](C(=O)O)CSSC[C@@H](C(=O)NCC(=O)NCC(=O)N[C@@H](CO)C(=O)N[C@@H](CCCNC(=N)N)C(=O)N[C@@H](Cc2c[nH]c3ccccc23)C(N)=O)NC(=O)[C@H]([C@@H](C)O)NC(=O)[C@H](Cc2ccccc2)NC(=O)[C@H]([C@@H](C)CC)NC(=O)[C@H](C(C)C)NC(=O)[C@H](C)NC(=O)[C@H](CCCNC(=N)N)NC1=O [H3 A-acid],151,4.9,117,34.7,–,–
CC[C@H](C)[C@@H]1NC(=O)[C@H](Cc2ccccc2)NC(=O)[C@H](CCC(=O)O)NC(=O)[C@H](CCCNC(=N)N)NC(=O)CNC(=O)[C@@H](NC(=O)[C@H](CC(C)C)NC(=O)[C@H](CCCNC(=N)N)NC(=O)[C@@H](NC(=O)CNC(=O)[C@H](Cc2ccc(O)cc2)NC(=O)[C@@H]2CCCN2C(=O)[C@H](C)NC(=O)[C@H](C)NC(=O)[C@@H](N)CCCNC(=N)N)C(C)C)CSSC[C@@H]2NC(=O)[C@@H](NC(=O)[C@H](CO)NC(=O)[C@H](CO)NC(=O)[C@H](CO)NC(=O)[C@H](CC(C)C)NC(=O)CNC(=O)[C@H](C)NC(=O)[C@H](CC(C)C)NC(=O)[C@@H](NC(=O)[C@@H](N)CC(=O)O)C(C)C)CSSC[C@H](NC(=O)CNC(=O)[C@H](Cc3c[nH]c4ccccc34)NC(=O)[C@H](CCCCN)NC2=O)C(=O)N[C@@H](CO)C(=O)N[C@@H](CCCCN)C(=O)N[C@@H](CO)C(=O)N[C@@H](CCC(=O)O)C(=O)N[C@@H]([C@@H](C)CC)C(=O)N[C@@H](CO)C(=O)N[C@@H](CO)C(=O)N[C@@H](CC(C)C)C(=O)N[C@H](C(N)=O)CSSC[C@@H](C(=O)NCC(=O)NCC(=O)N[C@@H](CO)C(=O)N[C@@H](CCCNC(=N)N)C(=O)N[C@@H](Cc2c[nH]c3ccccc23)C(=O)O)NC(=O)[C@H]([C@@H](C)O)NC(=O)[C@H](Cc2ccccc2)NC(=O)[C@H]([C@@H](C)CC)NC(=O)[C@H](C(C)C)NC(=O)[C@H](C)NC(=O)[C@H](CCCNC(=N)N)NC1=O [H3 B-acid],24,0.955,19.1,1.32,–,–
CC[C@H](C)[C@@H]1NC(=O)[C@H](Cc2ccccc2)NC(=O)[C@H](CCC(=O)O)NC(=O)[C@H](CCCNC(=N)N)NC(=O)CNC(=O)[C@@H](NC(=O)[C@H](CC(C)C)NC(=O)[C@H](CCCNC(=N)N)NC(=O)[C@@H](NC(=O)CNC(=O)[C@H](Cc2ccc(O)cc2)NC(=O)[C@@H]2CCCN2C(=O)[C@H](C)NC(=O)[C@H](C)NC(=O)[C@@H](N)CCCNC(=N)N)C(C)C)CSSC[C@@H]2NC(=O)[C@@H](NC(=O)[C@H](CO)NC(=O)[C@H](CO)NC(=O)[C@H](CO)NC(=O)[C@H](CC(C)C)NC(=O)CNC(=O)[C@H](C)NC(=O)[C@H](CC(C)C)NC(=O)[C@@H](NC(=O)[C@@H](N)CC(=O)O)C(C)C)CSSC[C@H](NC(=O)CNC(=O)[C@H](Cc3c[nH]c4ccccc34)NC(=O)[C@H](CCCCN)NC2=O)C(=O)N[C@@H](CO)C(=O)N[C@@H](CCCCN)C(=O)N[C@@H](CO)C(=O)N[C@@H](CCC(=O)O)C(=O)N[C@@H]([C@@H](C)CC)C(=O)N[C@@H](CO)C(=O)N[C@@H](CO)C(=O)N[C@@H](CC(C)C)C(=O)N[C@H](C(=O)O)CSSC[C@@H](C(=O)NCC(=O)NCC(=O)N[C@@H](CO)C(=O)N[C@@H](CCCNC(=N)N)C(=O)N[C@@H](Cc2c[nH]c3ccccc23)C(=O)O)NC(=O)[C@H]([C@@H](C)O)NC(=O)[C@H](Cc2ccccc2)NC(=O)[C@H]([C@@H](C)CC)NC(=O)[C@H](C(C)C)NC(=O)[C@H](C)NC(=O)[C@H](CCCNC(=N)N)NC1=O [H3 acid],18.6,–,8.71,1.15,–,–
Oxytocin: polypeptide hormone,–,–,–,–,only active as a C-terminal amide form,–
angiotensin II: polypeptide hormone,–,–,–,–,active as a C-terminal acid form,–
"INSL3: relaxin family peptide (peptide, UniProt P51460 21-55; P51460 106-131, looked up, not fully specified (bridges); ends and bridges not checked, relaxin family peptide) Insulin-like 3 B chain: LGPAPTPEMREKLCGHHFVRALVRVCGGPRWSTEA Insulin-like 3 A chain: AAATNPARYCCLSGCTQQDLLTLCPY",–,–,–,–,–,equally active either in acid or amide form
